Measured values as given in PubChem BioAssay (NCI).
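Where inhibition never reached the appropriate level, the endpoint shown equals the highest concentration tested. Otherwise, values were interpolated linearly from a five-concentration, 48-hour dose response in 96-well plates. At the GI50, growth is halved. TGI marks complete inhibition of growth.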

Key:
Experiment in all cases: NCI tumour cell line growth inhibition, 48 h
A549 NSCLC = tested on: A549 NSCLC
CAKI-1 renal = tested on: CAKI-1 renal
IGROV1 ovarian = tested on: IGROV1 ovarian
LOX IMVI melanoma = tested on: LOX IMVI melanoma
NCI-H226 lung = tested on: NCI-H226 lung
SF-268 CNS = tested on: SF-268 CNS
SK-MEL-2 melanoma = tested on: SK-MEL-2 melanoma
SK-OV-3 ovarian = tested on: SK-OV-3 ovarian
SNB-19 CNS = tested on: SNB-19 CNS
HCT-15 colon = tested on: HCT-15 colon

| SMILES | TGI (A549 NSCLC) [µM] | TGI (CAKI-1 renal) [µM] | TGI (IGROV1 ovarian) [µM] | TGI (LOX IMVI melanoma) [µM] | TGI (NCI-H226 lung) [µM] | TGI (SF-268 CNS) [µM] | TGI (SK-MEL-2 melanoma) [µM] | TGI (SK-OV-3 ovarian) [µM] | TGI (SNB-19 CNS) [µM] | GI50 (A549 NSCLC) [µM] | GI50 (CAKI-1 renal) [µM] | GI50 (HCT-15 colon) [µM] | TGI (HCT-15 colon) [µM] | GI50 (LOX IMVI melanoma) [µM] | GI50 (NCI-H226 lung) [µM] | GI50 (SF-268 CNS) [µM] | GI50 (SK-MEL-2 melanoma) [µM] | GI50 (SK-OV-3 ovarian) [µM] | GI50 (SNB-19 CNS) [µM] | GI50 (IGROV1 ovarian) [µM] |
| --- | --- | --- | --- | --- | --- | --- | --- | --- | --- | --- | --- | --- | --- | --- | --- | --- | --- | --- | --- | --- |
| Cc1cc(C)c(S(=O)(=O)N(CCCN)OCCCN)c(C)c1 | > 100 | > 100 | > 100 | > 100 | > 100 | > 100 | > 100 | > 100 | > 100 |  |  |  |  |  |  |  |  |  |  |  |
| CCN(CC)C(=S)SSCCO | > 100 | 27.5 |  | 46.3 | > 100 | 37.1 | 39.6 | > 100 | > 100 | 79.9 | 13.6 | 17.9 | 38.4 | 19.9 | > 100 | 19 | 19.9 | 73.9 | 95.4 |  |
| CC1CCN(c2cc(-c3cc4ccccc4o3)oc(=O)c2C#N)CC1 | > 100 | > 100 | > 100 | > 100 | > 100 | > 100 | > 100 |  | > 100 |  |  |  | > 100 |  |  |  |  |  |  |  |
| Clc1ccc(-c2nnc(-c3nsc4ccccc34)o2)cc1 | > 100 |  | > 100 | > 100 |  | 66.6 | > 100 |  | > 100 |  |  |  | > 100 |  |  |  |  |  |  |  |
| O=c1[nH]c(=S)[nH]c2c(C3OC(CO)C(O)C3O)nsc12 (configuration not stated) | > 100 | > 100 | > 100 | > 100 | > 100 | > 100 | > 100 | > 100 |  |  |  |  | > 100 |  |  |  |  |  |  |  |
| Clc1cccc(C2SCc3nc4ccccc4n32)c1 (configuration not stated) | > 100 | > 100 | 70 | 30.8 | 33.7 | > 100 |  | 52.7 |  |  |  |  | 44 |  |  |  |  |  |  |  |
| Fc1ccc(C(OCCN2CC3CC2CN3)c2ccc(F)cc2)cc1 (configuration not stated) |  | > 100 | > 100 | > 100 | > 100 | > 100 | 38.1 | > 100 |  |  |  |  | > 100 |  |  |  |  |  |  |  |
| CC(C)(CC1(C)NC(=O)NC1=O)OCc1ccccc1 (configuration not stated) | > 100 | > 100 | > 100 | > 100 |  | > 100 | > 100 | > 100 | > 100 |  |  |  | > 100 |  |  |  |  |  |  |  |
| CCOC(=O)[C@H]1Nc2c(cccc2[N+](=O)[O-])C2c3ccccc3CC21 (some centres not stated) | > 100 | > 100 | > 100 | > 100 | > 100 | > 100 | > 100 |  | > 100 |  |  |  | > 100 |  |  |  |  |  |  |  |
| CCOc1cc(/C=C/C(=O)CC(=O)/C=C/c2ccc(OC(=O)CNCCN(CC)CC)c(OCC)c2)ccc1OC(=O)CNCCN(CC)CC | 15.9 | 6.74 | 3.83 | 2.44 | 5.17 | 9.64 | 3.26 | 20.8 | 14.2 | 3.81 | 2.12 | 2.06 | 4.66 | 1.05 | 2.15 | 1.98 | 1.68 | 5.39 | 2.86 | 1.97 |
| CC1=NN(C(=O)c2ccc(C)cc2)C(=O)C1N=Nc1ccccc1C(=O)O (configuration not stated) | > 100 | > 100 | > 100 | > 100 | > 100 | > 100 | > 100 | > 100 | > 100 |  |  |  | > 100 |  |  |  |  |  |  |  |
| N/C(=N\N=C/c1cc([N+](=O)[O-])cc([N+](=O)[O-])c1O)NO | > 100 | > 100 | > 100 | > 100 | > 100 | > 100 | > 100 | > 100 | > 100 |  |  |  | > 100 |  |  |  |  |  |  |  |
| Cc1ccc2oc3c(ccc(=O)n3C)c(=O)c2c1 | > 100 | > 100 | > 100 | > 100 | > 100 | > 100 | > 100 | > 100 | > 100 |  |  |  | > 100 |  |  |  |  |  |  |  |
| c1csc(C(NC2=NCCO2)C2CC2)c1 (configuration not stated) | > 100 | > 100 | > 100 | > 100 | > 100 |  | > 100 | > 100 | > 100 |  |  |  | > 100 |  |  |  |  |  |  |  |
| CO/C(=N\N=C(/c1ccccc1)C(F)(F)F)c1ccncc1 |  | > 100 | > 100 |  | 77.4 |  | > 100 | > 100 | > 100 |  |  |  | > 100 |  |  |  |  |  |  |  |
